Where two headings read alike, the source gives them in different places.
How the values were obtained:
[1] = target: T1, mouse MLKL(179-464) pseudokinase domain (Mus musculus, UniProt Q9D2Y4); assay: Surface Plasmon Resonance (SPR) binding, mouse MLKL
T1 construct: made in house; host or cells: Sf21 insect cells
T1 sequence (Q9D2Y4 179-464 isoform Q9D2Y4-2): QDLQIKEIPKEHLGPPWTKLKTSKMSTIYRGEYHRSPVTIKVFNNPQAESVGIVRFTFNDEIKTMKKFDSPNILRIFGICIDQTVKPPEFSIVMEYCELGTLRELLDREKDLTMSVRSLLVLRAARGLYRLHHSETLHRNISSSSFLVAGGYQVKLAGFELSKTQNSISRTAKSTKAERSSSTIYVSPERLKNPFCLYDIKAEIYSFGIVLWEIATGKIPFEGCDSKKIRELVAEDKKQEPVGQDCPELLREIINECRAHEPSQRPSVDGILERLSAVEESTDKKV
Description: Double His-tagged MLKL and an unrelated negative control reference protein were immobilized on an NTA Capture chip charged with Ni^2+ according to manufacturer's instructions. In some instances, double His-tagged proteins were captured via Ni^2+/NTA chelation on a series S sensor chip containing carboxymethylated dextran surface pre-immobilized with nitrilotriacetic acid (NTA). The surface was then activated and enhanced with NHS/EDC mixture and His captured proteins covalently coupled to the surface as succinamide esters. Ethanolamine was injected later to block any unreacted esters. Unbound Ni^2+ and non-covalently bound proteins were eluted by EDTA injections.
Typical immobilization levels were 2000-3000 Response Units (RU). Flow cell 1 was left blank as a reference surface. Immobilization experiments were carried out at 25° C. in a running buffer containing 20 mM HEPES (pH 8.0), 200 mM NaCl and 0.005% (v/v) surfactant P20.
Binding experiments were carried out in Running Buffer+2% v/v DMSO. […] Data were reduced, solvent corrected, and double referenced by Biacore T200 Evaluation Software. Data were fit globally to a two state kinetic interaction model and the Kd determined from the (kd/ka) ratio. A 1:1 binding stoichiometry was inferred from the steady state binding curves and the maximum observed Response Unit (RU) levels.

transformed iBMDMs = assay: Poly(I:C) experiment, RIP1-independent necroptosis; format: cell-based; details: poly:IC 50 ug/ml, zVAD 25 uM, 48 hrs
Procedure: Cells were harvested after 48 hrs. Cell death was analysed via propidium iodide staining and flow cytometry.

[2] = target: T2, human MLKL(190-471) pseudokinase domain (Homo sapiens, UniProt Q8NB16); assay: STD NMR nucleotide competition, human MLKL; format: binding; set-up: His6 (pFastBac HTb, TEV-cleavable) (N, cleaved yes); made in house; host or cells: Sf21 insect cells; details: 200 μM compound, 200 μM nucleotide, 2 μM human MLKL(190-471)
T2 sequence (Q8NB16 190-471): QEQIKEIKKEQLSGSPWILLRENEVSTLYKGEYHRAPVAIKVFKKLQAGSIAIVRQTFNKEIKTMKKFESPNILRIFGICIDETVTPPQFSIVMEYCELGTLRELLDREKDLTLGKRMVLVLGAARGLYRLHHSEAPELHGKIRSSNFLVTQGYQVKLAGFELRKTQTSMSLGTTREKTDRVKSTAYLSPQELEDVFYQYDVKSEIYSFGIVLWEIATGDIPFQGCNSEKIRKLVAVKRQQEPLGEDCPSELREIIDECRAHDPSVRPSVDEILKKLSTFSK
Procedure: Nucleotides were dissolved in NMR buffer (20 mM HEPES, pH 7.5, 200 mM NaCl, 90% D2O, 10% H2O) at a final concentration of 200 μM in each sample of STD experiments. Three different samples were prepared for each nucleotide: (1) ATP or ADP with protein buffer added as equivalent volume of protein containing samples (2) ATP or ADP with MLKL pseudokinase domain at a final concentration of 2 μM (3) ATP or ADP with MLKL pseudokinase domain (2 μM) with test compound at 200 μM. […] Saturation of the protein resonances was achieved by a 4 s train of Gaussian pulses centred at −0.5 ppm. For the reference spectra, a similar saturation pulse was applied at a frequency centred 20,000 Hz off-resonance. A 15 ms T2-spin-lock period was employed before acquisition to allow the residual protein signal to decay. NMR data were processed in TOPSPIN version 3.2 (Bruker BioSpin).

wild type U937 cells = assay: Cell death assay, TSQ-induced necroptosis in U937 cells (PI, flow cytometry); format: cell-based, human; details: for IC50: Homo sapiens
Description: (§1) Mouse dermal fibroblasts (MDFs) were isolated from three MlkI^−/− mice and three congenic wild type mice and then immortalized by SV40 large T antigen to generate three biologically independent cell lines, as described in Murphy J M, et al. (2013), Immunity 39(3):443-453. Immortalized MDFs were similarly prepared from three Ripk3^−/− mice and congenic wild type mice. MDFs and HEK293T were maintained in Dulbecco's modified Eagle's medium (DMEM) supplemented with 8-10% v/v fetal calf serum (FCS), and 5 μg/mL puromycin for lines stably transduced with inducible expression constructs for MLKL. U937 cells were cultured in RPMI1640 supplemented with 8% v/v FCS. Cell death assays were carried out in 24 well plates, seeding 1×10^5 cells per well. Cells attached over 4 h in the presence of 10 ng/mL doxycycline or 20 ng/mL were then treated with assorted combinations of Necrostatin (50 μM) and Q-VD-OPh (5 μM) 30 min prior to addition of TNF (100 ng/mL) and Smac mimetic (500 nM). After 24 h for MDF cells or 48 h for U937 cells, cells were harvested and PI positive cells (1 μg/mL) quantified using a BD FACSCalibur flow cytometer.

[3] = tested on: U937 cells gene-edited to delete MLKL; assay: Toxicity / TS-induced apoptotic death in U937 cells gene-edited to delete MLKL; format: cell-based, human; details: U937 cells lacking MLKL, TS treatment
Description: as §1

[4] = tested on: wild type MDFs (mouse dermal fibroblasts); assay: Cell death assay, TSQ-induced necroptosis in MDFs (PI, flow cytometry); format: cell-based; details: 24 h
Description: as §1

U937 cells = assay: Counter screen: cell viability without TSQ cocktail (off target effect); format: cell-based; details: U937 without TSQ cocktail
Procedure: In parallel, all compounds are tested for their ability to affect cell viability. The same U937 cells are treated with compound in DMSO without the TSQ cocktail. This counter screen enables evaluation of off-target effects. In this case gain, cell viability is measured by flow cytometry after PI staining.

## CN(c1ccc(NC(=O)Nc2ccc(OC(F)(F)F)cc2)cc1)c1ccnc(Nc2cccc(S(N)(=O)=O)c2)n1 [Compound 1, 3-((4-(methyl(4-(3-(4-(trifluoromethoxy)phenyl)ureido)phenyl)amino)pyrimidin-2-yl)amino)benzenesulfonamide]
[1]
  Kd: 9.3 µM
Transformed iBMDMs
  inhibition of Poly(I:C) and zVAD induced necroptosis: inhibits Poly(I:C) and zVAD induced necroptosis
[2]
  competition with ATP and ADP for binding (STD NMR): can compete with (i) ATP and (ii) ADP
Wild type U937 cells; U-937, 48 h, read-out: IC50, rescue from TSQ-induced necroptosis
  IC50: 0.05 to 0.1 µM
Wild type U937 cells; U-937, read-out: Inhibition of necroptosis (IC50)
  IC50: 0.05 to 0.1 µM
Wild type U937 cells; wt U937 cells, 48 h
  cells rescued from TSQ-induced necroptosis: ~50%
[3]
  effect on TS-induced apoptotic death: unaffected
[4]; Mus musculus, Fibroblast, read-out: IC50, rescue from TSQ-induced necroptosis
  IC50: ~0.5 µM
[4]; wt MDFs
  cells rescued from TSQ-induced necroptosis: ~50%
U937 cells; compound at 500 nM
  Off target effect (% cell death) at 500 nM: <20%
U937 cells; compound at 1 uM
  Off target effect (% cell death) at 1 uM: <20%
U937 cells; compound at 5 uM
  Off target effect (% cell death) at 5 uM: 60%
U937 cells; compound at 10 uM
  Off target effect (% cell death) at 10 uM: 79%

Reference: patent US20170114025A1, “METHODS FOR INHIBITING NECROPTOSIS” (Catalyst Therapeutics Pty Ltd, priority 2014, published 2017)
